From patent US20230331803A1, “CO-AGONISTS OF THE GLP-1 AND AMYLIN RECEPTORS” (priority 2020, published 2023) come the findings set out here.

Where two headings read alike, the source gives them in different places. Starred links: 1 amine or outer side, 2 acyl side, 3 side chain; linkers in the order of their positions; H or OH if unused. Non-standard residues stand in square brackets, D forms with d. Groups on a side chain read outwards from the residue. *: point of attachment. Butyryl(4-SO2NHCO(CH2)16Tz) = O=C(CCCCCCCCCCCCCCCCc1nnn[nH]1)NS(=O)(=O)CCCC(=O)*; Decanoyl(10-(4-HOOC-PhO)) = O=C(O)c1ccc(OCCCCCCCCCC(=O)*)cc1; C20 diacid = O=C(O)CCCCCCCCCCCCCCCCCCC(=O)*; C18 diacid = O=C(O)CCCCCCCCCCCCCCCCC(=O)*; C16 diacid = O=C(O)CCCCCCCCCCCCCCC(=O)*; γGlu = O=C(O)[C@H](CCC(=O)[*:2])N[*:1]; εLys = N[C@@H](CCCCN[*:1])C(=O)[*:2]; AEEA = NCCOCCOCC(=O)O; Aib = CC(C)(N)C(=O)O

The target of experiment [1] is T1, human amylin receptor (hAmyR3) (Homo sapiens, UniProt O60896+P30988).
T1 construct: host or cells: BHK cells (Hollex-1 line: human calcitonin receptor (a) + CRE-Luc), further transfected with human RAMP3
T1 sequence (P30988 25-474): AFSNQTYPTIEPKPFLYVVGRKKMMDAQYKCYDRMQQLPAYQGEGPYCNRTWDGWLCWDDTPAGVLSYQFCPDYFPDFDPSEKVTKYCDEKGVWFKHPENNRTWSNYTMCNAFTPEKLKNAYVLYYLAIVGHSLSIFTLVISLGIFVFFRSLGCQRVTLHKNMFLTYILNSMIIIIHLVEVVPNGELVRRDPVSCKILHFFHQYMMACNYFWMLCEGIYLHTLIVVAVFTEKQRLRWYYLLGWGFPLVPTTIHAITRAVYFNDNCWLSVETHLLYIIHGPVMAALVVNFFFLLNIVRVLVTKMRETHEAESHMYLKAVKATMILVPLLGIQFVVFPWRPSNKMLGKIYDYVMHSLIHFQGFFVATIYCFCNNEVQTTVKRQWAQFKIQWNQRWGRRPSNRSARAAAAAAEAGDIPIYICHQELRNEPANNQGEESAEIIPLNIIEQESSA
T1 sequence (O60896 24-148): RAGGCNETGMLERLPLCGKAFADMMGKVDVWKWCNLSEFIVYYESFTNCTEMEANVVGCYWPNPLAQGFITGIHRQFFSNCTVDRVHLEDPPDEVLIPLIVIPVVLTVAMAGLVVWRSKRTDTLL
Kind of experiment: Human amylin receptor in vitro potency assay (CRE-luciferase reporter, BHK cells).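 Also: BHK cells expressing human calcitonin receptor plus RAMP3 (amylin-3 receptor) with a CRE-luciferase reporter, agonist activity read as luminescence from cAMP-driven transcription, 7-point serial dilutions.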 The experiment is classed as cell-based.

In the next experiment the target is T2, human GLP-1 receptor (Homo sapiens, UniProt P43220).
T2 construct: expressed in transfected cells; host or cells: BHK (Baby Hamster Kidney) cells, clone BHK 467-12A KZ-10, stably transfected, with CRE-luciferase reporter
T2 sequence (P43220 24-463): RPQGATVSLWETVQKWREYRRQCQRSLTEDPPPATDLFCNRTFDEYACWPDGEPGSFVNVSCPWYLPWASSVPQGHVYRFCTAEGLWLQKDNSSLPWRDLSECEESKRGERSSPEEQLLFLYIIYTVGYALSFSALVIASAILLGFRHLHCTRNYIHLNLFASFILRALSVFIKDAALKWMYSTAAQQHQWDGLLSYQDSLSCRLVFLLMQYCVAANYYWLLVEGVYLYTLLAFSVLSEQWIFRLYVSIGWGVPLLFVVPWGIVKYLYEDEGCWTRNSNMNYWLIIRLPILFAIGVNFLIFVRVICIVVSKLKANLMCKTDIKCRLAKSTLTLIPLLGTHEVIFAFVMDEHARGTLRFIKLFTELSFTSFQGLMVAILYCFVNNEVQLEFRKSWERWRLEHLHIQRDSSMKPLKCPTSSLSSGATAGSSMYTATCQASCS
Kind of experiment: Human GLP-1 receptor in vitro potency assay (CRE-luciferase reporter, BHK cells). The experiment is classed as cell-based.

Setting [2] is: Table 4a, BHK hAmyR3/CRE-Luc cells, 3 hours, read-out: Human AmyR3 potency [EC50 (pM)].
Setting [3] is: Table 4a, BHK cells expressing human GLP-1R, CRE-Luc, 3 hours, read-out: Human GLP-1R potency [EC50 (pM)].

For the molecule “HWEGTFTSDVSSYLEEQAARK([AEEA-AEEA-γGlu-Decanoyl(10-(4-HOOC-PhO))])FIEWLVRGK([AEEA-AEEA-γGlu-Decanoyl(10-(4-HOOC-PhO))])GEGEASELSTAALGRLSAELHELATLPRTETGSGSP-NH2 [Compound 0099]”, the EC50 in experiment [1] came out at 44.9 pM; at human GLP-1 receptor it was 9.6 pM.
For “H-H[Aib]EGTFTSDVSSYLEEQAAREFIAWLVRGRK([AEEA-AEEA-γGlu-C18 diacid])GGGGSGGGEASELSTAALGRLSAELHELATLPRTETGSGSP-NH2 [Compound 0637]”, the concentration giving a half-maximal response (EC50) in experiment [1] (setting [2]) came to 14.1 pM; on human GLP-1 receptor (setting [3]), 1.9 pM.
The like results for “H-H[Aib]EGTFTSDVSSYLEEQAAREFIEWLVRGK(Butyryl(4-SO2NHCO(CH2)16Tz))ASELSTAALGRLSAELHELATLPRTETGSGSP-NH2 [Compound 0147]” were, in that order, 33.7 pM and 36.8 pM.
The like results for “H-H[Aib]EGTFTSDVSSYLEGQAAK([AEEA-AEEA-γGlu-C20 diacid])EFIAWLVRGRGQAPGQEPEASELSTAALGRLSAELHELATLPRTETGSGSP-NH2 [Compound 0157]” were, in that order, 18.4 pM and 28.7 pM.
The matching figures for “H-H[Aib]EGTFTSDVSSYLEEQAAREFIAWLVRGRK([εLys-εLys-γGlu-C20 diacid])GGGGEASELSTAALGRLSAELHELATLPRTETGSGSP-NH2 [Compound 0657]”: 10.4 pM and 9.9 pM.
Take “H[Aib]EGTFTSDVSSYLEEQAARK([AEEA-AEEA-γGlu-C16 diacid])FIAWLVRGK([AEEA-AEEA-γGlu-C16 diacid])GGGEASELSTAALGRLSAELHELATLPRTETGSGSP-NH2 [Compound 0076]”: the values for the concentration giving a half-maximal response (EC50) (in experiment [1] (setting [2]); at human GLP-1 receptor (setting [3])) were 46.4 pM and 1.7 pM, respectively.
The matching figures for “H-H[Aib]EGTFTSDVSSYLEGQAAK([AEEA-AEEA-γGlu-C20 diacid])EFIAWLVRGRGQEPGQAPEASELSTAALGRLSAELHELATLPRTETGSGSP-NH2 [Compound 0202]”: 28.4 pM and 10.5 pM.
Take “H-Aib-EGTFTSDVSSYLEGQAA-K([2-[2-[2-[[2-[2-[2-[[(4S)-4-Carboxy-4-(17-Carboxyheptadecanoylamino)Butanoyl]Amino]Ethoxy]Ethoxy]Acetyl]Amino]Ethoxy]Ethoxy]Acetyl])-EFIAWLVRGRGGQEPGQEPCNTATCATQRLAEFLRHSSNNFGPILPPTNVGSNTP-amide [Comparator compound 0015, reference compound]”: the EC50 in experiment [1] (Table 4c, further comparator compounds, read-out: Human AmyR3 potency [EC50 (pM)]) was determined as 312 pM; at human GLP-1 receptor (read-out: Human GLP-1 R potency [EC50 (pM)], Table 4c, further comparator compounds), 45 pM. Further, the “Ability to agonise the amylin receptor, in words” value in experiment [1] (Tables 4a-4c) is listed as “poor agonist of the amylin receptor”.
As for “H-HAEGTFTSDK([AEEA-AEEA-γGlu-C16 diacid])SSYLEEK([AEEA-AEEA-γGlu-C16 diacid])AAREFIEWLVRGRGEASELSTAALGRLSAELHELATLPRTETGSGSP-NH2 [Compound 0475]”, the EC50 was 66.8 pM in experiment [1] (setting [2]) and 70.4 pM at human GLP-1 receptor (setting [3]).
Regarding “H-H[Aib]EGTFTSDVSSYLEEQAARK([AEEA-AEEA-γGlu-C16 diacid])FIAWLVRGRGGGGGASELSTAALGRLSK([AEEA-AEEA-γGlu-C16 diacid])ELHELATLPRTETGSGSP-NH2 [Compound 0296]”, the EC50 is 29.9 pM in experiment [1] (setting [2]) and 4 pM on human GLP-1 receptor (setting [3]).
The matching figures for “H-H[Aib]EGTFTSDVSK([γGlu-γGlu-γGlu-γGlu-C20 diacid])YLEEQAAREFIEWLVRGAAEASELSTAALGRLSAELHELATLPRTETGSGSP-NH2 [Compound 0632]”: 148 pM and 18.8 pM.
For the molecule “H-H[Aib]EGTFTSDVSSYLEEQAAREFIAWLVRGK([AEEA-AEEA-γGlu-C18 diacid])GGEASELSTAALGRLSAELHELATLPRTETGSGSP-NH2 [Compound 0132]”, the values for the EC50 (in experiment [1] (setting [2]); on human GLP-1 receptor (setting [3])) were 34.9 pM and 3 pM, respectively.
The like results for “H-H[Aib]EGTFTSDVSSYLEGQAAK([AEEA-AEEA-γGlu-C18 diacid])EFIAWLVRGRGGGGGGGGGGGGGEASELSTAALGRLSAELHELATLPRTETGSGSP-NH2 [Compound 0092]” were, in that order, 10.9 pM and 18.5 pM.
As to “HWEGTFTSDVSSYLEEQAAREFIAWLVRGRK([AEEA-AEEA-γGlu-C18 diacid])GGGGEASELSTAALGRLSAELHELATLPRTETGSGSP-NH2 [Compound 0648]”, the half-maximal effective concentration (EC50) came to 9.2 pM in experiment [1] (setting [2]) and 17 pM at human GLP-1 receptor (setting [3]).
Consider “H-H[Aib]EGTFTSDVSSYLEEQAAREFIAWLVRGRK([AEEA-AEEA-AEEA-γGlu-C18 diacid])GGGGEASELSTAALGRLSAELHELATLPRTETGSGSP-NH2 [Compound 0661]”, for which the EC50 in experiment [1] (setting [2]) stood at 14.4 pM; on human GLP-1 receptor (setting [3]), 2.8 pM.
For “H-H[Aib]EGTFTSDVSSYLEGQAAK([AEEA-AEEA-γGlu-C18 diacid])EFIAWLVRGRGQEPGQAPEASELSTAALGRLSAELHELATLPRTETGSGSP-NH2 [Compound 0026]”, the EC50 in experiment [1] (setting [2]) came to 14 pM; at human GLP-1 receptor (setting [3]), 8.8 pM.
On to `CC[C@H](C)[C@H](NC(=O)[C@H](Cc1ccccc1)NC(=O)[C@H](CCC(=O)O)NC(=O)[C@H](CCCNC(=N)N)NC(=O)[C@H](C)NC(=O)[C@H](C)NC(=O)[C@H](CCC(N)=O)NC(=O)[C@H](CCC(=O)O)NC(=O)[C@H](CCC(=O)O)NC(=O)[C@H](CC(C)C)NC(=O)[C@H](Cc1ccc(O)cc1)NC(=O)[C@H](CO)NC(=O)[C@H](CO)NC(=O)[C@H](CCCCNC(=O)COCCOCCNC(=O)COCCOCCNC(=O)CC[C@H](NC(=O)[C@H]1CC[C@H](CNC(=O)CCCCCCCCCCCCCCCCCCC(=O)O)CC1)C(=O)O)NC(=O)[C@H](CC(=O)O)NC(=O)[C@H](CO)NC(=O)[C@@H](NC(=O)[C@H](Cc1ccccc1)NC(=O)[C@@H](NC(=O)CNC(=O)[C@H](CCC(=O)O)NC(=O)C(C)(C)NC(=O)[C@@H](N)Cc1c[nH]cn1)[C@@H](C)O)[C@@H](C)O)C(=O)N[C@@H](C)C(=O)N[C@@H](Cc1c[nH]c2ccccc12)C(=O)N[C@@H](CC(C)C)C(=O)N[C@H](C(=O)N[C@@H](CCCNC(=N)N)C(=O)NCC(=O)N[C@@H](CCCNC(=N)N)C(=O)NCC(=O)NCC(=O)NCC(=O)NCC(=O)N[C@@H](CCC(=O)O)C(=O)N[C@@H](C)C(=O)N[C@@H](CO)C(=O)N[C@@H](CCC(=O)O)C(=O)N[C@@H](CC(C)C)C(=O)N[C@@H](CO)C(=O)N[C@H](C(=O)N[C@@H](C)C(=O)N[C@@H](C)C(=O)N[C@@H](CC(C)C)C(=O)NCC(=O)N[C@@H](CCCNC(=N)N)C(=O)N[C@@H](CC(C)C)C(=O)N[C@@H](CO)C(=O)N[C@@H](C)C(=O)N[C@@H](CCC(=O)O)C(=O)N[C@@H](CC(C)C)C(=O)N[C@@H](Cc1c[nH]cn1)C(=O)N[C@@H](CCC(=O)O)C(=O)N[C@@H](CC(C)C)C(=O)N[C@@H](C)C(=O)N[C@H](C(=O)N[C@@H](CC(C)C)C(=O)N1CCC[C@H]1C(=O)N[C@@H](CCCNC(=N)N)C(=O)N[C@H](C(=O)N[C@@H](CCC(=O)O)C(=O)N[C@H](C(=O)NCC(=O)N[C@@H](CO)C(=O)NCC(=O)N[C@@H](CO)C(=O)N1CCC[C@H]1C(N)=O)[C@@H](C)O)[C@@H](C)O)[C@@H](C)O)[C@@H](C)O)C(C)C` [Compound 0266], for which the concentration for a half-maximal effect (EC50) in experiment [1] (setting [2]) worked out at 8.5 pM; at human GLP-1 receptor (setting [3]), 6.3 pM.
The like results for “H-H[Aib]EGTFTSDVSSYLEEK([AEEA-AEEA-γGlu-C16 diacid])AAREFIAWLVRGRGGGGGEASELSTAALGRLSAELHELK([AEEA-AEEA-γGlu-C16 diacid])TLPRTETGSGSP-NH2 [Compound 0396]” were, in that order, 32.8 pM and 4.8 pM.
Take “HAEGTFTSDVSSYLEEK([AEEA-AEEA-γGlu-C18 diacid])AAREFIEWLVRGRGEASELSTAALGRLSAELHELATLPRTETGSGSP-NH2 [Compound 0472]”: the figures for the 50% effective concentration (EC50) (in experiment [1] (setting [2]); on human GLP-1 receptor (setting [3])) were 24 pM and 2.8 pM, respectively.
“H-H[Aib]EGTFTSDVSSYLEEQAARK([AEEA-AEEA-γGlu-C16 diacid])FIEWLVRGK([AEEA-AEEA-γGlu-C16 diacid])GEGGEASELSTAALGRLSAELHELATLPRTETGSGSP-NH2 [Compound 0086]”: the EC50 in experiment [1] (setting [2]) worked out at 78.3 pM; on human GLP-1 receptor (setting [3]), 3.9 pM.
The like results for “H-H[Aib]EGTFTSDVSK([γGlu-γGlu-γGlu-γGlu-C16 diacid])YLEEQAARK([γGlu-γGlu-γGlu-γGlu-C16 diacid])FIAWLVRGRGEASELSTAALGRLSAELHELATLPRTETGSGSP-NH2 [Compound 0634]” were, in that order, 59.4 pM and 14.7 pM.
The matching figures for “H-H[Aib]EGTFTSDK([AEEA-AEEA-γGlu-C16 diacid])SSYLEEQAAREFIAWLVRGRGGGGGEASELSTAALGRLSAELHELK([AEEA-AEEA-γGlu-C16 diacid])TLPRTETGSGSP-NH2 [Compound 0260]”: 41.8 pM and 11.9 pM.
